Results published in patent publication US20080220056A1, “Treatment for liver disease” (UNIVERSITY OF SOUTHAMPTON, priority 2002, published 2008).

How the values were obtained:
Format in all cases: cell-based
[1] = system: rat hepatocytes in comparison to rat hepatic stellate cells; experiment: Cell attachment (protein assay): gliotoxin doses killing rat hepatocytes versus hepatic stellate cells; conditions: attachment after four hours, in vitro
Protocol: (§1) Rat hepatocytes were isolated by collagenase perfusion essentially as previously described. (Harvey et al., Biochemical J., (1998) 331:273-281). Hepatocytes were cultured as outlined for hepatic stellate cells except that they were initially seeded onto collagen coated plates in William's medium E supplemented with 10% fetal calf serum and 1 μg/mL insulin for the first 2 hours.
(§2) Cells were treated with gliotoxin dissolved in DMSO vehicle (added to medium from a 2000-fold molar concentrated stock). Control cells received DMSO vehicle only (i.e., 0.05% vol/vol). All other additions to culture medium were made from concentrated stocks dissolved in DMSO or by direct addition to culture medium. Protein contents of wells were determined using the Lowry assay (Lowry et al., J. Biol. Chem., (1951)193: 265-275).
The necessary doses of gliotoxin required to kill rat hepatic stellate cells and hepatocytes were compared. Culture-activated (14-day) rat hepatic stellate cells or rat hepatocytes were treated with either 0.05% (vol/vol) DMSO or 1.5 μmol/L gliotoxin and cell attachment determined by direct assay of protein in each well after four hours as outlined in Materials and Methods. The results obtained are depicted in FIG. 3A and are expressed as the mean and standard deviation percentage attachment versus DMSO control for three separate experiments.

[2] = system: rat hepatic stellate cells; experiment: Propidium iodide FACS analysis of DNA strand breaks in rat hepatic stellate cells; conditions: 1.5 μmol/L gliotoxin, two hours
Protocol: (§3) Hepatic stellate cells cultured in 35-mm diameter dishes (Greiner) were harvested, pelleted by centrifugation and DNA fragmentation determined as outlined elsewhere (Elsharkawy et al., Hepatology (1999) 30:761-769). Propidium Iodide Flow-Activated Cell Sorting Analysis Detached cells were pelleted by centrifugation, washed in PBS, and resuspended in HYPO buffer (0.1% wt/vol) Na3Citrate and 0.1% (wt/vol) Triton™ X-100 containing […] propidium iodide and incubated for 1 hour. The cells were then analyzed by fluorescence-activated cell sorter (FACS) with a Becton Dickinson (San Jose, Calif.) FACScan instrument using a 488 nm excitation wavelength with a band pass filter set at 530 nm. Attached cells were scraped in HYPO buffer after washing cells with PBS.
To characterize the extent and significance of apoptosis in response to gliotoxin, rat hepatic stellate cell DNA strand breaks were assessed by FACS analysis of propidium iodide stained cells. Culture-activated (14-day) rat hepatic stellate cells were treated with 0.05% (vol/vol) DMSO vehicle control or with 1.5 lμmol/L gliotoxin for two hours, harvested, and stained with propidium iodide as outlined in the materials and methods section.

[3] = system: rat hepatic stellate cells; experiment: Low molecular weight DNA fragmentation (nucleosomal ladder) in rat hepatic stellate cells; conditions: rat HSC; 1.5 μmol/L; up to four hours
Protocol: as §3
The effect of gliotoxin on the cleavage of DNA to a nucleosomal ladder was examined because this phenomenon is characteristic of apoptosis. Culture activated (14-day) rat hepatic stellate cells in six well plates were treated with either 0.05% (vol/vol) DMSO for four hours or 1.5 μmol/L gliotoxin for zero hours, half an hour, one hour, two hours or four hours. At each time point, both detached and attached cells were harvested together and low molecular weight DNA (20,000 g supernatant) fragmentation determined as outlined in the materials and methods section. At least three separate experiments were performed. 1 kilobase DNA ladder (Promega) was used as a molecular weight marker.
The effect of various compounds on DNA laddering was then determined. Culture-activated (14-day) rat hepatic stellate cells in six-well plates were treated with:
After fours hours of treatment, DNA fragmentation was determined.
Culture activated (14 day) rat hepatic stellate cells in six well plates were treated with: • (a) 0.05% (vol/vol) DMSO; • (b) 1.5 μmol/L gliotoxin; • (c) 1.5 μmol/L gliotoxin with 100 μmol/L tamoxifen; • (d) 1.5 μmol/L gliotoxin with […] actinomycin d; • (e) 1.5 μmol/L gliotoxin with 10 μmol/L cycloheximide; • (f) 1.5 μmol/L gliotoxin with 10 μmol/L cyclosporin; • (g) 1.5 μmol/L gliotoxin with […] m-iodobenzylguanidine; • (h) 1.5 μmol/L gliotoxin with 50 μmol/L quin-2-am; • (i) 50 μmol/L guin-2-am alone; • (j) 250 μmol/L m-iodobenzylguanidine; • (k) 10 μmol/L cyclosporin; • (l) 10 μmol/L cycloheximide; • (m) 1 μg/ml actinomycin d; or • (n) 100 μmol/L tamoxifen.
After four hours of treatment, DNA fragmentation was determined as outlined in Materials and Methods.

[4] = system: rat hepatocytes; experiment: Rat hepatocyte viability by attachment and trypan blue exclusion; conditions: 50 μmol/L gliotoxin, four hours
Protocol: as §1, §2
The effect of various compounds on cell viability and attachment was determined. Viability of rat hepatocytes as judged by attachment and 0.1% (wt/vol) trypan blue exclusion after four hours treatment with: […]

[5] = system: caspase-3 activity in hepatic stellate cells; experiment: Caspase-3 activity in cycloheximide-treated hepatic stellate cells; conditions: 50 μM cycloheximide
Protocol: Apoptosis was quantified by a colorimetric assay for caspase-3 activity (Promega) according to the manufacturer's instructions.
Caspase-3 is a central caspase in the proapoptotic cascade (Hengartner, Nature (2000) 407, 770-776) and can be used as an alternative assay to assess apoptosis. Hepatic stellate cells were cultured in 50 μM cycloheximide with TIMP-1 at a concentration of 0, 1, 10, or 100 ng/ml. Controls where cells were incubated with either the caspase 3 inhibitor benzyloxycarbonyl-Val-Ala-Asp-fluoromethylketone or serum alone were also performed. Data are expressed as mean ±S.E. and are presented as percentage of control given the arbitrary value of 100%. * indicates p<0.001; n=3. […] Although the mean caspase-3 activity of the cells treated with 10 ng/ml TIMP-1 was slightly lower than that treated with 100 ng/ml of TIMP-1, this was not statistically significant (p=0.67 by Student's t test).

[6] = system: rat hepatic stellate cells; experiment: Hepatic stellate cell proliferation (tritiated thymidine); conditions: TIMP-1 1-100 ng/ml, 24 hour incubation, versus BSA carrier
Protocol: Hepatic stellate cells were cultured in 24-well tissue culture plates. These were washed with serum-free medium for 24 h, and then the cells were exposed to TIMP-1 at a concentration range of 1-100 ng/ml for 24 h and then pulsed with tritiated thymidine (0.5 μCi/well) for 18 hours before scintillation counting as previously described (Boulton et al., Clin. Sci., (1995) 88:119-130).

Compound: CN1C(=O)[C@]23CC4=CC=C[C@H](O)[C@H]4N2C(=O)[C@@]1(CO)SS3 [gliotoxin]
- higher concentrations required to kill rat hepatocytes in comparison to rat hepatic stellate cells [1]: 10 to 100 fold
- propidium iodide nuclei fluorescence (DNA cleavage) [2]: broad low level of fluorescence
- cleavage of DNA to a nucleosomal ladder [3]: time dependent increase in DNA cleavage to a nucleosomal ladder
- hepatocytes that do not exclude 0.1% (wt/vol) trypan blue [4]: approximately 90%
- hepatocyte attachment to the substratum / membrane integrity ([4]; 10 ng/mL TNF-α with 10 μmol/L cycloheximide): significant reductions in cell attachment to the substratum

Compound: TIMP-1: recombinant tissue inhibitor of matrix metalloproteases 1 (Biogenesis)
- reduction in caspase-3 activity ([5]; TIMP-1 10 ng/ml): 50%
- reduction in apoptosis measured by caspase-3 activity ([5]; TIMP-1 100 ng/ml): 50%
- caspase-3 activity ([5]; TIMP-1 1-100 ng/ml): dose-dependent reduction in caspase-3 activity
- proliferation of rat hepatic stellate cells [6]: had no effect on proliferation
